Experimental data: patent US20170050957A1, “4-AMINO-6-(HETEROCYCLIC)PICOLINATES AND 6-AMINO-2-(HETEROCYCLIC)PYRIMIDINE-4-CARBOXYLATES AND THEIR USE AS HERBICIDES” (Dow AgroSciences LLC, priority 2013, published 2017)
Where two headings read alike, the source gives them in different places.

Key:
[1] = system: Key Broadleaf Weed and Crop Species; assay: Post-emergent Test II herbicidal activity (Table 15); format: in vivo; details: post-emergence, 336 h, 14 d; for pest or weed control at 35 g/ha: 35 g ai/ha; for pest or weed control at 70 g/ha: 70 g ai/ha; for pest or weed control at 140 g/ha: 140 g ai/ha
Method in brief: (§1)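 Greenhouse-grown seedlings at first/second true leaf receive a track spray at 187 L/ha, using a highest rate plus two-fold serial dilutions down to 1/16×. Watering is by subirrigation to avoid wash-off. Percent injury (0-100) is judged by eye at 14 d against untreated plants.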

[2] = system: Key Grass and Sedge Weeds as well as Grass Crops; assay: Post-emergent Test II herbicidal activity (Table 16); format: in vivo; details: post-emergence, 336 h, 14 days after application; for pest or weed control at 35 g/ha: 35 g ai/ha; for pest or weed control at 70 g/ha: 70 g ai/ha; for pest or weed control at 140 g/ha: 140 g ai/ha
Method in brief: as §1

[3] = Abutilon theophrasti, velvetleaf (Abutilon theophrasti), read-out: Visual Growth Reduction (%) 14 Days After Application, ABUTH
[4] = Amaranthus retroflexus, redroot pigweed (Amaranthus retroflexus), read-out: Visual Growth Reduction (%) 14 Days After Application, AMARE
[5] = Brassica napus, oilseed rape, canola (Brassica napus), read-out: Visual Growth Reduction (%) 14 Days After Application, BRSNN
[6] = Chenopodium album, lambsquarters (Chenopodium album), read-out: Visual Growth Reduction (%) 14 Days After Application, CHEAL
[7] = Euphorbia heterophylla, wild poinsettia (Euphorbia heterophylla), read-out: Visual Growth Reduction (%) 14 Days After Application, EPHHL
[8] = Helianthus annuus, sunflower (Helianthus annuus), read-out: Visual Growth Reduction (%) 14 Days After Application, HELAN
[9] = Cyperus esculentus, yellow nutsedge (Cyperus esculentus), read-out: Visual Growth Reduction (%) 14 Days After Application CYPES
[10] = Echinochloa crus-galli, barnyardgrass (Echinochloa crus-galli), read-out: Visual Growth Reduction (%) 14 Days After Application ECHCG
[11] = Oryza sativa, rice (Oryza sativa), read-out: Visual Growth Reduction (%) 14 Days After Application ORYSA
[12] = Setaria faberi, giant foxtail (Setaria faberi), read-out: Visual Growth Reduction (%) 14 Days After Application SETFA
[13] = Triticum aestivum, wheat, spring (Triticum aestivum), read-out: Visual Growth Reduction (%) 14 Days After Application TRZAS
[14] = Zea mays, maize, corn (Zea mays), read-out: Visual Growth Reduction (%) 14 Days After Application ZEAMX

For COC(=O)c1nc(-c2cccc3ccsc23)c(F)c(N)c1Cl [Compound 3.24], the pest or weed control at 35 g/ha [1, 3] was 0 to 29%, the pest or weed control at 70 g/ha [1, 3] was 0 to 29% and the pest or weed control at 140 g/ha [1, 3] was 0 to 29%. It also gave a pest or weed control at 35 g/ha [1, 4] of 85 to 94%, a pest or weed control at 70 g/ha [1, 4] of 85 to 94% and a pest or weed control at 140 g/ha [1, 4] of 95 to 100%. The pest or weed control at 35 g/ha [1, 5] was 45 to 59%, the pest or weed control at 70 g/ha [1, 5] was 45 to 59% and the pest or weed control at 140 g/ha [1, 5] was 45 to 59%. For the same molecule, the pest or weed control at 35 g/ha [1, 6] was 85 to 94%, the pest or weed control at 70 g/ha [1, 6] was 95 to 100% and the pest or weed control at 140 g/ha [1, 6] was 95 to 100%. For the same molecule, the pest or weed control at 35 g/ha [1, 7] was 0 to 29%, the pest or weed control at 70 g/ha [1, 7] was 0 to 29% and the pest or weed control at 140 g/ha [1, 7] was 0 to 29%. The pest or weed control at 35 g/ha [1, 8] was 60 to 74%, the pest or weed control at 70 g/ha [1, 8] was 60 to 74% and the pest or weed control at 140 g/ha [1, 8] was 85 to 94%. The melting point was 121 to 123 °C, the pest or weed control at 35 g/ha [2, 9] was 0 to 29% and the pest or weed control at 70 g/ha [2, 9] was 0 to 29%. For the same molecule, the pest or weed control at 140 g/ha [2, 9] was 0 to 29%, the pest or weed control at 35 g/ha [2, 10] was 0 to 29% and the pest or weed control at 70 g/ha [2, 10] was 0 to 29%. For the same molecule, the pest or weed control at 140 g/ha [2, 10] was 0 to 29%, the pest or weed control at 35 g/ha [2, 11] was 0 to 29% and the pest or weed control at 70 g/ha [2, 11] was 0 to 29%. For the same molecule, the pest or weed control at 140 g/ha [2, 11] was 0 to 29%, the pest or weed control at 35 g/ha [2, 12] was 0 to 29% and the pest or weed control at 70 g/ha [2, 12] was 0 to 29%. It also gave a pest or weed control at 140 g/ha [2, 12] of 0 to 29%, a pest or weed control at 35 g/ha [2, 13] of 0 to 29% and a pest or weed control at 70 g/ha [2, 13] of 0 to 29%. For the same molecule, the pest or weed control at 140 g/ha [2, 13] was 0 to 29%, the pest or weed control at 35 g/ha [2, 14] was 0 to 29% and the pest or weed control at 70 g/ha [2, 14] was 0 to 29%. For the same molecule, the pest or weed control at 140 g/ha [2, 14] was 0 to 29%.
